Like-named read-outs stand apart in the source and are kept apart here.
What was measured:
[1] = test system: resistant gram-negative MBL-based bacteria; test: MICx: lowest adjuvant concentration giving carbapenem MIC ≤2 mg/L; assay type: cell-based; details: for adjuvant effect at an inhibitor concentration of 25 mg/L: meropenem, K34-7 and K66-45
[2] = zinc-binding ability; known/prior art value; cited from earlier work
VIM-2 = VIM-2 (Escherichia coli, UniProt Q5U7L7); assay type: biochemical; details: purified VIM-2, PD-10 column; EDTA at 100 μM
Protocol: The eluent used was Chelex-treated HEPES 50 mM buffer, pH 7.5. […] In all experiments, 16 aliquots of 250 μL were taken from the PD-10 column runsout and enzyme activity was analysed. Enzyme activity was measured by adding Nitrocefin as a reporter substrate (final concentration of 50 μM).
To investigate if more extreme time-dependent and concentration-dependent conditions could restore enzyme activity, aliquots having final concentrations of 30 nM column-treated enzyme and 1000 μM Zn^2+ on ice and at room temperature over prolonged time.

K. pneumoniae K66-45 = assay type: cell-based; details: inhibitor 25 mg/L
Protocol: After plating and grown overnight at 37° C., only single colonies, ignoring any touching the edges of the plate, were counted.
10^9 CFU K66-45 (Mueller-Hinton broth, no selection) was plated and grown overnight, 37° C. Only single colonies, ignoring any touching the edges of the plate, were counted.

SMILES: O=C(NCCc1ccc(-n2cc(CN(Cc3ccccn3)Cc3ccccn3)nn2)cc1)[C@H]1O[C@H](O)[C@H](O)[C@@H](O)[C@H]1O [Example 101, (2S,3R,4S,5R,6S)—N-(4-(4-((Bis(pyridin-2-ylmethyl)amino)methyl)-1H-1,2,3-triazol-1-yl)phenethyl)-3,4,5,6-tetrahydroxytetrahydro-2H-pyran-2-carboxamide]
- adjuvant concentration range at which efficient [1]: 100 to 150 µM
- adjuvant effect at an inhibitor concentration of 25 mg/L [1]: less activity as an adjuvant

SMILES: O=C(Cc1ccc(-n2cc(CN(Cc3ccccn3)Cc3ccccn3)nn2)cc1)N[C@@H](Cc1cccc(C(=O)O)c1)B(O)O [Example 157, (R)-3-(2-(2-(4-(4-((bis(pyridin-2-ylmethyl)amino)methyl)-1H-1,2,3-triazol-1-yl)phenyl)acetamido)-2-boronoethyl)benzoic acid]
- adjuvant effect at an inhibitor concentration of 25 mg/L [1]: less activity as an adjuvant

SMILES: c1ccc(CN(Cc2ccccn2)Cc2ccccn2)nc1 [TPA, N,N,N-tris(2-pyridylmethyl) amine]
- pKd [2]: about 12

SMILES: c1ccc(CN(CCN(Cc2ccccn2)Cc2ccccn2)Cc2ccccn2)nc1 [TPEN, N,N,N′,N′-tetrakis(2-pyridylmethyl) ethylenediamine, reference compound]
- irreversibility of VIM-2 inhibition (VIM-2): irreversibly inhibited

SMILES: CN(C[C@H](O)[C@@H](O)[C@H](O)[C@H](O)CO)C(=O)c1ccc(CN(Cc2ccccc2)Cc2ccccn2)nc1 [Example 187, 6-((benzyl(pyridin-2-ylmethyl)amino)methyl)-N-methyl-N-((2S,3R,4R,5R)-2,3,4,5,6-pentahydroxyhexyl)nicotinamide]
- adjuvant effect at an inhibitor concentration of 25 mg/L [1]: completely abolishes the adjuvant effect

SMILES: COC(=O)[C@@H](C)NC(=O)[C@@H](C)NC(=O)Cn1cc(CN(Cc2ccccn2)Cc2ccccn2)nn1 [Example 194, Methyl (2-(4-((bis(pyridin-2-ylmethyl)amino)methyl)1H-1,2,3-triazol-1-yl)acetyl)-D-alanyl-D-alaninate, reference compound]
- adjuvant concentration range at which efficient [1]: 100 to 150 µM

SMILES: CN(C[C@H](O)[C@@H](O)[C@H](O)[C@H](O)CO)C(=O)c1ccc(CN(Cc2ccccn2)Cc2ccccn2)s1 [Example 182, 5-((bis(pyridin-2-ylmethyl)amino)methyl)-N-methyl-N-((2S,3R,4R,5R)-2,3,4,5,6-pentahydroxyhexyl)thiophene-2-carboxamide]
- adjuvant effect at an inhibitor concentration of 25 mg/L [1]: completely abolishes the adjuvant effect

SMILES: CN(C[C@H](O)[C@@H](O)[C@H](O)[C@H](O)CO)C(=O)c1ccc(CN(Cc2ccccc2)Cc2ccccc2)nc1 [Example 185, 6-((dibenzylamino)methyl)-N-methyl-N-((2S,3R,4R,5R)-2,3,4,5,6-pentahydroxyhexyl)nicotinamide]
- adjuvant effect at an inhibitor concentration of 25 mg/L [1]: completely abolishes the adjuvant effect

SMILES: O=C(O)CN(CCN(CC(=O)O)CC(=O)O)CC(=O)O [EDTA, ethylenediaminetetra-acetic acid, reference compound]
- irreversibility of VIM-2 inhibition (VIM-2): did not inhibit VIM-2 irreversibly

SMILES: c1ccc(CNCc2ccccn2)nc1 [DPA, dipicoylamine]
- pKd [2]: < 8

SMILES: COC(=O)c1ccc(CN(Cc2ccccn2)Cc2ccccn2)s1 [Example 180, Methyl 5-((bis(pyridin-2-ylmethyl)amino)methyl)thiophene-2-carboxylate]
- adjuvant effect at an inhibitor concentration of 25 mg/L [1]: completely abolishes the adjuvant effect

SMILES: CN(C[C@H](O)[C@@H](O)[C@H](O)[C@H](O)CO)C(=O)Cc1ccc(NC(=O)CN(CCN(Cc2ccccn2)Cc2ccccn2)Cc2ccccn2)cc1 [Example 25, 2-(4-(2-((2-(bis(pyridin-2-ylmethyl)amino)ethyl)(pyridin-2-ylmethyl)amino)acetamido)phenyl)-N-methyl-N-(2,3,4,5,6-pentahydroxyhexyl)acetamide]
- RF - no of colonies (K. pneumoniae K66-45; MEM 2 mg/L): nc (n.c. = no colonies)
- RF - no of colonies (K. pneumoniae K66-45; MEM 4 mg/L): nc (n.c. = no colonies)
- RF - no of colonies (K. pneumoniae K66-45; MEM 8 mg/L): nc (n.c. = no colonies)
